Each structure is given as a SMILES string.

The nature of this series: physchem. As to conditions: octan-1-ol/water, pH 7.4, LogD7.4.
For `CN(C)CC(O)COc1ccc(Nc2nccc(Nc3ccccc3)n2)cc1` (centres undefined), the logD – broadly, the decadic logarithm of the distribution of all forms, ionised or not, between an organic phase and buffer at a given pH – turned out to be 1.58.
With `c1ccc(-c2n[nH]c(-c3ccncc3)n2)nc1` the figure was 1.48.
For `COc1ccccc1Oc1ccc(N(Cc2cccnc2)S(=O)(=O)CC(F)(F)F)cc1`, the logD was 1.5.
Then `CC(C)CC(c1ccncc1)n1[nH]c(=O)c2nc3cc(Cl)ccc3c(O)c2c1=O` (centres undefined), with 1.64.
With `CC(=O)NC[C@H]1CN(c2ccc(N3CCN(c4cnccn4)CC3)c(F)c2)C(=O)O1` the figure was 1.49; with `N=C(N)SCc1ccc(Cl)c(Cl)c1`, 1.28.
With `CC(C)Nc1ccc2cnn(-c3cncc(-n4ccc(CC(=O)O)c4)n3)c2c1` the figure was 1.24; with `C[C@H](N)C(=O)N[C@H](/C=C/S(=O)(=O)c1ccccc1)CCc1ccccc1`, 1.66; with `O=C(Oc1ccccc1)N1CCOCC1`, 1.3.
As to `CC(C)C(=O)Nc1ccc2c(c1)C(=O)NC2=O`, the log distribution coefficient (logD) was 1.55.
Then `COC(Cn1c(=O)[nH]c2c(=O)n(CC(=O)NC(C(=O)C(F)(F)F)C(C)C)c(-c3ccccc3)cc2c1=O)OC` (centres undefined), with 1.56; and `CC(C)N(c1nnc(N)s1)C(C)C`, with 1.49.
For the compound `Cc1oc(-c2ccc(Cl)cc2)cc1C(=O)O`, the logD was 1.67.
Consider `c1ccc(CN(Cc2ccccc2)c2nn[nH]n2)cc1`, for which the logD amounted to 1.37.
With `CC(=O)NC[C@H]1CN(c2ccc(-n3ccc(C#N)c3)c(F)c2)C(=O)O1` the figure was 1.6; with `NC(=O)Cc1nc(-c2ccccc2)cs1`, 1.3; with `O=S(=O)(Nc1cccnc1)c1ccc2c(c1)OCCO2`, 1.34.
The compound `CSc1ncccc1C(=O)Nc1nccs1` had a logD of 1.43.
For the compound `CCOC(=O)c1cc2ccc(O)cc2oc1=O`, the logD came to 1.2.
Then `Cc1ccc(O)c(O)c1`, with 1.37; and `Nc1nc2ccccc2n1C(=O)c1ccccc1`, with 1.56.
Then `Cc1cc(N)n(-c2ccccc2)n1`, with 1.25.
With `CC(=O)N1CCN(CC(O)COc2ccc(Br)cc2)CC1` (centres undefined) the figure was 1.6; with `Clc1ccc(C2=CSC3=NCCN23)cc1Cl`, 1.54.
In turn, `Nc1c(C(=O)NC2CC2)nnc2c(-c3ncccn3)cccc12` had a logD of 1.5.
With `CC1CN(C(=O)c2nnc3c(-c4ncccn4)cccc3c2N)C1` the figure was 1.21; with `Cc1cc(CN2Cc3ccccc3C2C(=O)Nc2ccc(Cl)cc2)ccc1OCC(=O)O` (centres undefined), 1.38; with `Nc1ncc(-c2ccc(F)cc2)[nH]1`, 1.39.
Then `CCCc1c(OCCCCSCC(=O)O)ccc(C(C)=O)c1O`, with 1.3; and `NS(=O)(=O)c1nc2ccccc2s1`, with 1.35.
`COc1ccc(C(CNC(=O)Nc2ccccc2)N2CCN(C)CC2)cc1` (centres undefined) came in with a logD of 1.5.
For `COCCNCc1cncc(-c2ccc(F)cc2OC)n1`, the log distribution coefficient (logD) turned out to be 1.61.
`COc1ccc2nc(C)cc(-n3cc(CNC(C)=O)nn3)c2c1`: the logD was 1.6.
Then `Cc1nsc(C)c1CCC1CCN(S(=O)(=O)CC2(N(O)C=O)CCOCC2)CC1`, with 1.5; and `C[C@H]1O[C@@H](n2cnc3c(N)nc(OC4CC5CC5C4)nc32)[C@H](O)[C@@H]1O` (some centres undefined), with 1.66.
Then `O=S(=O)(c1ccccc1-c1ccc(CNC2CCOCC2)cc1)N1CCCC1`, with 1.4; and `CCC(c1nc2ccsc2c(=O)n1Cc1ccccc1)N(CC1CCNCC1)C(=O)c1ccc(C)cc1` (centres undefined), with 1.33; and `CCC(c1nc2ccsc2c(=O)n1Cc1ccccc1)N(CCCN)C(=O)c1ccc(OC)cc1` (centres undefined), with 1.39.
As for `CCC(c1nc2ccoc2c(=O)n1Cc1ccccc1)N(CCCN)C(=O)c1ccc(C)cc1` (centres undefined), the logD was determined as 1.37.
With `CCC(c1nc2snc(C)c2c(=O)n1Cc1ccccc1)N(CCCN)C(=O)c1ccc(C)cc1` (centres undefined) the figure was 1.61; with `Cc1ccc(NC(=O)c2ccnc(N3CCOCC3)c2)cc1Nc1ccnc(OCCCN(C)C)n1`, 1.3; with `NC(=O)c1ccc(=O)n(Cc2ccc(F)c(F)c2)c1`, 1.37.
With `OC1(c2ccccc2)CNCCc2ccccc21` (centres undefined) the figure was 1.38; with `CCC(CC)NC(=O)c1cnn(Cc2ccccc2)c1NS(=O)(=O)c1ccc(C)cc1`, 1.52.
With `C[C@H]1O[C@@H](n2cnc3c(N)nc(OCC4CC(F)(F)C4(F)F)nc32)[C@H](O)[C@@H]1O` (some centres undefined) the figure was 1.42; with `CN[C@@H](C)C(=O)N[C@H](C(=O)N[C@H]1CCCN(CCc2cccc(OC)c2)C1)C(C)(C)C`, 1.47.
On to `CN[C@@H](C)C(=O)N[C@H](C(=O)N[C@H]1CCCN(CCc2ccc(OC)cc2)C1)C(C)(C)C`, for which the log distribution coefficient (logD) was 1.45.
In turn, `COc1ccc(-c2nc3c(NCC4CCNCC4)c(Br)cnc3[nH]2)cc1` came in with a logD of 1.36.
`COc1ccc(-c2cc(=O)[nH]c(N)n2)cc1` came in with a logD of 1.52.
For `O=c1c2ccc(O)cc2ncn1-c1ccc(O)cc1`, the logD came out at 1.6.
Then `O=C(O)Cc1ccc(-c2ccc(NC(=O)c3nnc(Nc4ccccc4F)o3)cc2)cc1`, with 1.5; and `CC(C)Cn1c(=O)n(C)c(=O)c2c(C(=O)N3CC[C@@H](O)C3)c(Cc3ccnc4ccccc34)sc21`, with 1.65; and `NC(=O)Nc1cc(-c2cccc(F)c2F)sc1C(=O)N[C@H]1CCCNC1`, with 1.32.
Then `c1ccc2c(c1)nnn2-c1ccncc1`, with 1.69; and `CCCSc1ncccc1C(=O)N(C)C1CCOCC1`, with 1.63; and `CCCSc1nc(N2CCCCC2C(=O)O)ccc1C(=O)NC1CCCCC1` (centres undefined), with 1.36.
With `Cc1ccc(S(=O)(=O)NC(=O)N2CCC(N3CCC(Oc4ccc(Cl)cc4)CC3)CC2)cc1` the figure was 1.6.
`CN1CCN(c2ccc(Nc3ccnc4ccccc34)cc2)CC1` returned a logD of 1.3.
Compound `Cc1nc(C)c(-c2ccc3c(c2)CC[C@]32CC[C@@H](c3nnn[nH]3)CC2)nc1C(N)=O` gave a logD of 1.4.
`Cc1nc(C)c(-c2ccc([C@H]3CC[C@H](CC(=O)O)CC3)c(F)c2)nc1C(N)=O` showed a logD of 1.3.
Then `CS(=O)(=O)c1ccccc1C(=O)NCC(O)CNC1CCN(Cc2ccc(Cl)c(Cl)c2)CC1` (centres undefined), with 1.21.
Then `C1=CCC(c2ccc3ccccc3c2)CNC1` (centres undefined), with 1.64; and `CC(NC(=O)C1(N)CCN(c2ncnc3[nH]ccc23)CC1)c1ccccn1` (centres undefined), with 1.3.
Then `CN(C)CCCC(NC(=O)C1(N)CCN(c2ncnc3[nH]ccc23)CC1)c1ccc(Cl)cc1` (centres undefined), with 1.4; and `NC1(C(=O)NC(CCCN2CCCC2)c2ccc(Cl)cc2)CCN(c2ncnc3[nH]ccc23)CC1` (centres undefined), with 1.3.
Regarding `CN(C)CCNCc1ccc(Nc2ncc3cc(-c4ccncc4)ccc3n2)cc1`, the logD came to 1.4.
With `CNCc1cccc(-c2ccc3c(N4CCOCC4)nc(N4C[C@@H](C)O[C@@H](C)C4)nc3n2)c1` the figure was 1.26.
Then `CCCCCc1cc(=O)[nH]c(N)n1`, with 1.62; and `NC1=NC(c2ccc(Cl)c(Cl)c2)CC(=O)N1` (centres undefined), with 1.46; and `O=[N+]([O-])c1ccc(C=NO)o1`, with 1.31.
As to `Cc1ccc(C(=O)N(CCCN)Cc2nc3cc(Cl)ccc3c(=O)n2Cc2ccccc2)cc1`, the logD turned out to be 1.47.
Turning to `CC(C)C(NC(=O)Cn1c(-c2cc(F)cc(F)c2)ncc(N)c1=O)C(=O)C(F)(F)F` (centres undefined), the logD was determined as 1.38.
With `Cn1c(=N)n(CC(=O)c2ccc(Cl)cc2)c2ccccc21` the figure was 1.63; with `O=C(NCCCN1CCCCC1)C(c1ccccc1)c1ccccc1`, 1.33; with `C[C@@H]1CN(C(=O)[C@@](C)(O)C(F)(F)F)[C@@H](C)CN1C(=O)c1ccc(C#N)cc1`, 1.5.
As to `CN(C)CC(O)COc1ccc(Nc2cc(Nc3ccc(F)cc3F)ncn2)cc1` (centres undefined), the logD stood at 1.48.
With `CNC(=O)c1cccc(S(=O)(=O)Nc2ncc(C)nc2OC)c1-c1ccc(CC(C)C)cc1` the figure was 1.68.
In the case of `CC(C)C(NC(=O)Cn1c(-c2ccccc2)ccc(NC(=O)NCc2ccc[n+]([O-])c2)c1=O)C(=O)C(F)(F)F` (centres undefined), the logD came out at 1.48.
For the compound `O=C(Nc1ccc(O)cc1)c1ccc(O)cc1`, the logD is 1.5.
With `C[Si](C)(C)C#Cc1cn(C[C@H]2CN(c3ccc(C4=CCS(=O)(=O)CC4)c(F)c3)C(=O)O2)nn1` the figure was 1.26; with `COc1cc2c(Nc3c(Cl)ccc4c3OCO4)ncnc2cc1OCCCN1CCCC1`, 1.62; with `O=C(NCC12CC3CC(CC(C3)C1)C2)c1cc(C2CCNCC2)ccc1Cl`, 1.58.
With `CC1(c2ccc(Cl)c(Cl)c2)CC(=O)NC(N)=N1` (centres undefined) the figure was 1.59.
Compound `O=C(O)c1ccc(Nc2ncc(Br)c(Nc3ccccc3)n2)cc1` came in with a logD of 1.65.
Then `CC(=O)NC[C@H]1CN(c2ccc(-n3cnc(C#N)c3)c(F)c2)C(=O)O1`, with 1.51.
Then `Clc1ccc(C2(c3ccc(-c4cn[nH]c4)cc3)CCNCC2)cc1`, with 1.51; and `Oc1c2ncc3ccccc3c2nn1-c1ccc(Cl)cc1`, with 1.52; and `CSc1nc(C(N)=O)c(N)s1`, with 1.21.
The compound `CN[C@H]1CCN(C(=O)c2ccc(Nc3nccc(-c4cnc(C)n4C(C)C)n3)cc2)C1` showed a logD of 1.22.
With `COc1cc2c(Nc3ccc(F)c(Cl)c3)c(C(N)=O)cnc2cc1OCCCN1CCN(C)CC1` the figure was 1.2; with `COC(=O)COc1ccc(OCCNCC(O)COc2ccccc2)cc1` (centres undefined), 1.54; with `NC(=O)Nc1sc(-c2ccccc2)cc1C(=O)N[C@H]1CCCNC1`, 1.27.
With `O=C(c1cc2cc(Cl)ccc2[nH]1)N1CCNCC1`, the logD is 1.65.
The compound `Cc1ccc(-c2ccc(S(=O)(=O)N3CCC[C@H]3C(=O)N3CC[C@@H](N)C3)cc2F)o1` showed a logD of 1.2.
As for `Cc1cc(N)c2cc(NC(=O)CCC(=O)Nc3ccc4nc(C)cc(N)c4c3)ccc2n1`, the logD stood at 1.39.
With `CC(C)CCCC(C)/N=c1\ccn(Cc2ccccc2)c2cc(Cl)ccc12` (centres undefined) the figure was 1.58; with `CNC[C@H](O)c1ccc(Cl)c(C(=O)NCC23CC4CC(CC(C4)C2)C3)c1`, 1.41.
With `Nc1nc(SCc2ccccc2)nc2c1ncn2[C@@H]1O[C@H](CO)[C@@H](O)[C@H]1O` the figure was 1.24; with `Nc1ccc2ncccc2c1`, 1.33.

For the origin of these results see ChEMBL document CHEMBL3301361, “Experimental in vitro DMPK and physicochemical data on a set of publicly disclosed compounds”.
